# Experiments:
# rat beta cells = assay: Number of living beta cells in culture (Hoechst 33342/propidium iodide whole-well imaging counts; expansion assay); type: cell-based
# Method: Beta cells were FACS-purified from islet-cell enriched suspensions (Pipeleers et al., 1985) prepared from neonatal (2-3 days-old) and adolescent or adult (8 or 40-week-old, male) Wistar rats (Janvier Bioservices, France); their purity was, respectively 70-75% and over 90%. Sorted cells were counted in a hemocytometer, seeded (day 0) and cultured for up to 15 days in serum-free Ham's-F10 medium at 5, 10 or 20 mmol/l glucose, supplemented with 2 mmol/l L-glutamine, 50 μM 3-isobutyl-1-methylxanthine, 0.5% Albumax-I, penicillin (100 U/ml) and streptomycin (0.1 mg/ml). The 10 mmol/l glucose condition is known to maintain beta cell survival over 9-days (Ling et al., 1994; Ling and Pipeleers, 1994). Medium and cells were retrieved after selected culture periods and assayed for insulin content; data were expressed as a function of the number of living beta cells that was determined in parallel wells.
# On day 1, 9 and 15 of culture, total numbers of living beta cells per well were determined by semi-automatic cell count, after Hoechst 33342 (Ho) and propidium iodide (PI) staining. Numbers of living beta cells were obtained by subtracting the PI-positive cell numbers from the Ho-positive cell numbers, and correcting for the percent insulin-negative cells, as determined following insulin-immunofluorescence staining. They were expressed as percent of the numbers on day 1. Each condition was also evaluated for increases in the percentage of proliferating beta cells (incorporating the thymidine-analogue 5-ethynyl-2′-deoxyuridine, EdU; 100 μmol/l). To detect beta cells that underwent two successive cycles, cells were sequentially exposed to two different thymidine-analogs, first EdU from day 3 to 6, and then BrdU (100 μmol/l) from day 7 to 10, with a 24-hour label-free period in between. EdU-positive (EdU^+) nuclei were detected with the Click-iT Assay kit (Invitrogen), while BrdU-positive (BrdU^+) nuclei were identified with anti-BrdU antibody.
# Absolute number of cells was determined by whole-well imaging using the BD-PathwayBioimager855 (BD-Biosciences). IPLab and AttoVision software packages (BD-Biosciences) were used for image background subtraction, segmentation and quantification.
# Experimental procedures for isolation of beta cells from neonatal (2-3 days old) and adult (8 or 40 week old, male) Wistar rats (Janvier Bioservices, France) and analysis of their number, viability and proliferation activity in culture have been described before (Assefa et al., 2014). Sorted beta cells were seeded in 804G matrix-coated plates (designated as day 0) and the numbers and viability of seeded cells at the start of all experiments were determined on day 1 (24 h after seeding). The cells were cultured in control medium, which is a serum-free Ham's F10 medium supplemented with 2 mM L-glutamine, 50 μM 3-isobutyl-1-methylxanthine, 0.5% Albumax I, penicillin (100 U/ml), streptomycin (0.1 mg/ml) and, unless indicated otherwise, 10 mM glucose.
# Sorted beta cells were seeded in 384-well or 6-well plates coated with 804G matrix, and kept in culture for up to 15 days at 37° C. 5% CO2 using Ham F10 supplemented with 1 mM L-glutamine, 0.1 mg/ml streptomycin, 0.075 mg/ml penicillin, 50 μM of isobutyl-1-methylxanthine (IBMX) at 10 mM D-glucose with and without synthetic GCs (6 methyl-prednisolone (6MP), dexamethasone (DEX), GR-modulators (compound A (CPA), mifepristone (MIF), and NFκB inhibitors (JSH-23 en Bay11-7085). Total cell number and beta cell viability was evaluated after incubation with Hoechst 33342 and propidium iodide. All chemicals were from Sigma Life Sciences or Merck. Quantification of cell numbers and analysis of beta-cell viability was done using the Pathway Bioimager (BD Biosciences) and using IPlab and Attovision software for background subtraction as described prior (Assefa et al., 2014).
# alpha cells = assay: Alpha cell numbers in cultured dissociated rat islet cells; type: cell-based; details: HC-containing medium; control 40±3%
# Excerpt: We next tested cell type-specificity of HC-induced proliferation by using dissociated rat islet cells containing 15-20% alpha cells and 10-15% other cell types. […] Non-endocrine pancreatic cells were virtually undetectable on day 15, presumably died out due to the serum-free culture conditions.
compound,measurement,setting,value
"C[C@]12CCC(=O)C=C1CC[C@@H]1[C@@H]2[C@@H](O)C[C@@]2(C)[C@H]1CC[C@]2(O)C(=O)CO [Hydrocortisone, hydrocortisone]",Number of Living Cells on Day 15 (% of Day 1),"rat beta cells; 9 days, HC, 6 days, control",168.1 ± 6.8 % of Day 1
same,Number of Living Cells on Day 15 (% of Day 1),"rat beta cells; 15 days, HC (Table 7), control 102.5 ± 6.1",173.9 ± 7.1 % of Day 1
same,Number of Living Cells on Day 15 (% of Day 1),"rat beta cells; HC alone, 15 days (Table 6)",156 ± 4 % of Day 1
same,Number of Living Cells on Day 15 (% of Day 1),"rat beta cells; HC, glucose 7.5 high-responsive cells, control 99.0 ± 1.5",182.0 ± 4.9 % of Day 1
same,Number of Living Cells on Day 15 (% of Day 1),"rat beta cells; HC, glucose 7.5 low-responsive cells, control 94.0 ± 9.2",117.3 ± 5.2 % of Day 1
same,Number of Living Cells on Day 15 (% of Day 1),"rat beta cells; HC, mixed beta cell population, control 110.7 ± 5.0",169.0 ± 9.3 % of Day 1
same,increase in absolute number of living beta cells in culture,rat beta cells; two-weeks culture,near population doubling
same,alpha cell numbers after 15-day culture (% of the starting level),alpha cells,57±1%

# — patent US20160274087A1, “SCREENING ASSAY FOR AGENTS THAT INFLUENCE BETA CELL NUMBER AND/OR PHENOTYPE” (VRIJE UNIVERSITEIT BRUSSEL, priority 2013, published 2016)
